Results from PubChem BioAssay AID1963432 (Molecular Pharmacology Branch, DTP, NCI, 2024).

Test system: SYO-1 complex spheroid growth, percent test/control
Test: Anticancer human tumor SYO-1 cell line growth inhibition [Asc];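 further: compound exposure lasted 7 days after spheroids grew 3 days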;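 on viability, T/C: 100% = DMSO vehicle control viability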
Settings: for IC50: curve of first compound; for viability, T/C: stronger effect = lower value
Procedure, shortened: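 Tumor cells were grown as multicellular spheroids with stromal HUVEC and mesenchymal stem cells and treated singly or in combination. Concentrations fell in half-log steps from the clinical Cmax, or from 10 microM where none was known.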

[1] = second compound 0.00949 µM, first compound 0.00316 µM
[2] = second compound 0.00949 µM, first compound 0.01 µM
[3] = second compound 0.00949 µM, first compound 0.0316 µM
[4] = second compound 0.00949 µM, first compound 0.1 µM
[5] = second compound 0.00949 µM, first compound 0.316 µM
[6] = second compound 0.00949 µM, first compound 1 µM
[7] = second compound 0.03 µM, first compound 0.00316 µM
[8] = second compound 0.03 µM, first compound 0.01 µM
[9] = second compound 0.03 µM, first compound 0.0316 µM
[10] = second compound 0.03 µM, first compound 0.1 µM
[11] = second compound 0.03 µM, first compound 0.316 µM
[12] = second compound 0.03 µM, first compound 1 µM
[13] = second compound 0.0949 µM, first compound 0.00316 µM
[14] = second compound 0.0949 µM, first compound 0.01 µM
[15] = second compound 0.0949 µM, first compound 0.0316 µM
[16] = second compound 0.0949 µM, first compound 0.1 µM
[17] = second compound 0.0949 µM, first compound 0.316 µM
[18] = second compound 0.0949 µM, first compound 1 µM
[19] = second compound 0.3 µM, first compound 0.00316 µM
[20] = second compound 0.3 µM, first compound 0.01 µM
[21] = second compound 0.3 µM, first compound 0.0316 µM
[22] = second compound 0.3 µM, first compound 0.1 µM
[23] = second compound 0.3 µM, first compound 0.316 µM
[24] = second compound 0.3 µM, first compound 1 µM
[25] = second compound 0.949 µM, first compound 0.00316 µM
[26] = second compound 0.949 µM, first compound 0.01 µM
[27] = second compound 0.949 µM, first compound 0.0316 µM
[28] = second compound 0.949 µM, first compound 0.1 µM
[29] = second compound 0.949 µM, first compound 0.316 µM
[30] = second compound 0.949 µM, first compound 1 µM
[31] = second compound 3 µM, first compound 0.00316 µM
[32] = second compound 3 µM, first compound 0.01 µM
[33] = second compound 3 µM, first compound 0.0316 µM
[34] = second compound 3 µM, first compound 0.1 µM
[35] = second compound 3 µM, first compound 0.316 µM
[36] = second compound 3 µM, first compound 1 µM

CNC(C)C(=O)NC1CN(S(=O)(=O)c2cccc(S(=O)(=O)N3CCC4CCC(C(=O)NC(c5ccccc5)c5ccccc5)N4C(=O)C(NC(=O)C(C)NC)C3)c2)CCC2CCC(C(=O)NC(c3ccccc3)c3ccccc3)N2C1=O (stereo unspecified) + CCN1C(C(=O)NC23CCC(C(=O)O)(CC2)CC3)C(c2cccc(Cl)c2F)C2(C(=O)Nc3cc(Cl)ccc32)C12CCCCC2 was tested, and the IC50 (second compound 0.00949 µM) was over 1000 nM, the IC50 (second compound 0.03 µM) was over 1000 nM and the IC50 (second compound 0.0949 µM) was over 1000 nM. For the same compound, the IC50 (second compound 0.3 µM) was under 3.16 nM, the IC50 (second compound 0.949 µM) was under 3.16 nM and the IC50 (second compound 3 µM) was under 3.16 nM. For the same compound, the viability, T/C [1] was 109%, the viability, T/C [2] was 104% and the viability, T/C [3] was 104%. It also gave a viability, T/C [4] of 112%, a viability, T/C [5] of 113% and a viability, T/C [6] of 98.7%. For the same compound, the viability, T/C [7] was 99.2%, the viability, T/C [8] was 99.9% and the viability, T/C [9] was 99.2%. For the same compound, the viability, T/C [10] was 105%, the viability, T/C [11] was 101% and the viability, T/C [12] was 96.6%. The viability, T/C [13] was 85.7%, the viability, T/C [14] was 82.6% and the viability, T/C [15] was 76.7%. It also gave a viability, T/C [16] of 75.3%, a viability, T/C [17] of 81.2% and a viability, T/C [18] of 70.6%. The viability, T/C [19] was 26.2%, the viability, T/C [20] was 20% and the viability, T/C [21] was 16.1%. For the same compound, the viability, T/C [22] was 15.6%, the viability, T/C [23] was 16% and the viability, T/C [24] was 13.4%. The viability, T/C [25] was 4.14%, the viability, T/C [26] was 1.95% and the viability, T/C [27] was 1.29%. For the same compound, the viability, T/C [28] was 1.74%, the viability, T/C [29] was 0.96% and the viability, T/C [30] was 0.61%. For the same compound, the viability, T/C [31] was 1.42%, the viability, T/C [32] was 1.29% and the viability, T/C [33] was 0.76%. It also gave a viability, T/C [34] of 1.16%, a viability, T/C [35] of 0.78% and a viability, T/C [36] of 0.82%.

In the case of Cn1ncnc1[C@H]1c2n[nH]c(=O)c3cc(F)cc(c23)N[C@@H]1c1ccc(F)cc1 + CCN1C(C(=O)NC23CCC(C(=O)O)(CC2)CC3)C(c2cccc(Cl)c2F)C2(C(=O)Nc3cc(Cl)ccc32)C12CCCCC2, the IC50 (second compound 0.00949 µM) is reported as 16.8 nM, the IC50 (second compound 0.03 µM) is reported as 6.16 nM and the IC50 (second compound 0.0949 µM) is reported as 1.56 nM. It also gave an IC50 (second compound 0.3 µM) of under 0.316 nM, an IC50 (second compound 0.949 µM) of under 0.316 nM and an IC50 (second compound 3 µM) of under 0.316 nM. It also gave a viability, T/C (second compound 0.00949 µM, first compound 0.000316 µM) of 112%, a viability, T/C (second compound 0.00949 µM, first compound 0.001 µM) of 104% and a viability, T/C [1] of 96.2%. The viability, T/C [2] was 78.7%, the viability, T/C [3] was 14.9% and the viability, T/C [4] was 7.79%. The viability, T/C (second compound 0.03 µM, first compound 0.000316 µM) was 104%, the viability, T/C (second compound 0.03 µM, first compound 0.001 µM) was 98.2% and the viability, T/C [7] was 87.5%. For the same compound, the viability, T/C [8] was 22.8%, the viability, T/C [9] was 6.44% and the viability, T/C [10] was 4.46%. For the same compound, the viability, T/C (second compound 0.0949 µM, first compound 0.000316 µM) was 90.8%, the viability, T/C (second compound 0.0949 µM, first compound 0.001 µM) was 66.6% and the viability, T/C [13] was 23.7%. It also gave a viability, T/C [14] of 7.28%, a viability, T/C [15] of 6.03% and a viability, T/C [16] of 3.35%. The viability, T/C (second compound 0.3 µM, first compound 0.000316 µM) was 15.8%, the viability, T/C (second compound 0.3 µM, first compound 0.001 µM) was 9.59% and the viability, T/C [19] was 5.54%. It also gave a viability, T/C [20] of 4.13%, a viability, T/C [21] of 2.99% and a viability, T/C [22] of 2.63%. It also gave a viability, T/C (second compound 0.949 µM, first compound 0.000316 µM) of 3.8%, a viability, T/C (second compound 0.949 µM, first compound 0.001 µM) of 2.11% and a viability, T/C [25] of 2.99%. It also gave a viability, T/C [26] of 1.27%, a viability, T/C [27] of 1.77% and a viability, T/C [28] of 1.2%. The viability, T/C (second compound 3 µM, first compound 0.000316 µM) was 10.9%, the viability, T/C (second compound 3 µM, first compound 0.001 µM) was 1.49% and the viability, T/C [31] was 2.04%. For the same compound, the viability, T/C [32] was 1.73%, the viability, T/C [33] was 1.53% and the viability, T/C [34] was 1.16%.

Work on COc1c(OCCCN2CCOCC2)ccc2c3n(c(=NC(=O)c4cnc(N)nc4)nc12)CCN3 + CCN1C(C(=O)NC23CCC(C(=O)O)(CC2)CC3)C(c2cccc(Cl)c2F)C2(C(=O)Nc3cc(Cl)ccc32)C12CCCCC2 yielded an IC50 (second compound 0.00949 µM) of 800 nM, an IC50 (second compound 0.03 µM) of 540 nM and an IC50 (second compound 0.0949 µM) of 123 nM. For the same compound, the IC50 (second compound 0.3 µM) was under 3.16 nM, the IC50 (second compound 0.949 µM) was under 3.16 nM and the IC50 (second compound 3 µM) was under 3.16 nM. The viability, T/C [1] was 110%, the viability, T/C [2] was 109% and the viability, T/C [3] was 101%. The viability, T/C [4] was 85.2%, the viability, T/C [5] was 75.4% and the viability, T/C [6] was 43.4%. The viability, T/C [7] was 103%, the viability, T/C [8] was 103% and the viability, T/C [9] was 96.9%. The viability, T/C [10] was 80.8%, the viability, T/C [11] was 69.3% and the viability, T/C [12] was 30.6%. It also gave a viability, T/C [13] of 85.8%, a viability, T/C [14] of 86.3% and a viability, T/C [15] of 77.2%. For the same compound, the viability, T/C [16] was 52.1%, the viability, T/C [17] was 32.2% and the viability, T/C [18] was 16%. For the same compound, the viability, T/C [19] was 20.3%, the viability, T/C [20] was 23.4% and the viability, T/C [21] was 19.3%. For the same compound, the viability, T/C [22] was 16.3%, the viability, T/C [23] was 12% and the viability, T/C [24] was 2.7%. For the same compound, the viability, T/C [25] was 2.01%, the viability, T/C [26] was 3.89% and the viability, T/C [27] was 3.28%. The viability, T/C [28] was 2.38%, the viability, T/C [29] was 3.39% and the viability, T/C [30] was 0.44%. The viability, T/C [31] was 1.01%, the viability, T/C [32] was 1.03% and the viability, T/C [33] was 1.75%. For the same compound, the viability, T/C [34] was 0.55%, the viability, T/C [35] was 0.57% and the viability, T/C [36] was 0.45%.

For O=C(c1ccc(F)c(F)c1Nc1ccc(I)cc1F)N1CC(O)([C@@H]2CCCCN2)C1 + CNC(C)C(=O)NC1CN(S(=O)(=O)c2cccc(S(=O)(=O)N3CCC4CCC(C(=O)NC(c5ccccc5)c5ccccc5)N4C(=O)C(NC(=O)C(C)NC)C3)c2)CCC2CCC(C(=O)NC(c3ccccc3)c3ccccc3)N2C1=O, the IC50 (second compound 0.01 µM) was over 1000 nM, the IC50 (second compound 0.0316 µM) was over 1000 nM and the IC50 (second compound 0.1 µM) was over 1000 nM. It also gave an IC50 (second compound 0.316 µM) of over 1000 nM, an IC50 (second compound 1 µM) of over 1000 nM and a viability, T/C (second compound 0.01 µM, first compound 0.00316 µM) of 97.8%. It also gave a viability, T/C (second compound 0.01 µM, first compound 0.01 µM) of 105%, a viability, T/C (second compound 0.01 µM, first compound 0.0316 µM) of 102% and a viability, T/C (second compound 0.01 µM, first compound 0.1 µM) of 98.1%. For the same compound, the viability, T/C (second compound 0.01 µM, first compound 0.316 µM) was 97.6%, the viability, T/C (second compound 0.01 µM, first compound 1 µM) was 103% and the viability, T/C (second compound 0.0316 µM, first compound 0.00316 µM) was 106%. The viability, T/C (second compound 0.0316 µM, first compound 0.01 µM) was 106%, the viability, T/C (second compound 0.0316 µM, first compound 0.0316 µM) was 95.2% and the viability, T/C (second compound 0.0316 µM, first compound 0.1 µM) was 95.2%. The viability, T/C (second compound 0.0316 µM, first compound 0.316 µM) was 95%, the viability, T/C (second compound 0.0316 µM, first compound 1 µM) was 94.5% and the viability, T/C (second compound 0.1 µM, first compound 0.00316 µM) was 99.5%. For the same compound, the viability, T/C (second compound 0.1 µM, first compound 0.01 µM) was 106%, the viability, T/C (second compound 0.1 µM, first compound 0.0316 µM) was 105% and the viability, T/C (second compound 0.1 µM, first compound 0.1 µM) was 92.1%. The viability, T/C (second compound 0.1 µM, first compound 0.316 µM) was 96.9%, the viability, T/C (second compound 0.1 µM, first compound 1 µM) was 93.6% and the viability, T/C (second compound 0.316 µM, first compound 0.00316 µM) was 113%. It also gave a viability, T/C (second compound 0.316 µM, first compound 0.01 µM) of 104%, a viability, T/C (second compound 0.316 µM, first compound 0.0316 µM) of 99.6% and a viability, T/C (second compound 0.316 µM, first compound 0.1 µM) of 96%. For the same compound, the viability, T/C (second compound 0.316 µM, first compound 0.316 µM) was 99.8%, the viability, T/C (second compound 0.316 µM, first compound 1 µM) was 97.8% and the viability, T/C (second compound 1 µM, first compound 0.00316 µM) was 97.7%. It also gave a viability, T/C (second compound 1 µM, first compound 0.01 µM) of 103%, a viability, T/C (second compound 1 µM, first compound 0.0316 µM) of 113% and a viability, T/C (second compound 1 µM, first compound 0.1 µM) of 98.4%. The viability, T/C (second compound 1 µM, first compound 0.316 µM) was 92.4% and the viability, T/C (second compound 1 µM, first compound 1 µM) was 91.2%.
